{"source": "paper PMC3969223", "about": "“Characterization of WZ4003 and HTH-01-015 as selective inhibitors of the LKB1-tumour-suppressor-activated NUAK kinases” (Biochemical Journal, 2013)", "key": {"PKCγ": {"molecular_target": "PKCγ (Homo sapiens, UniProt P05129)", "assay": "Kinase profiling", "format": "biochemical", "details": "0.1 or 1 μM inhibitor; mean of triplicate", "procedure,_shortened": "(§1)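 Read-out: % residual kinase activity vs DMSO control; mean of triplicates ±S.D. Inhibitor tested at 0.1 or 1 μM in vitro across a 140-kinase panel.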"}, "PRK2": {"molecular_target": "PRK2 (Homo sapiens, UniProt Q16513)", "assay": "Kinase profiling", "format": "biochemical", "details": "0.1 or 1 μM inhibitor; mean of triplicate"}, "MARK4": {"molecular_target": "MARK4 (Homo sapiens, UniProt Q96L34)", "sequence (Q96L34 whole entry)": "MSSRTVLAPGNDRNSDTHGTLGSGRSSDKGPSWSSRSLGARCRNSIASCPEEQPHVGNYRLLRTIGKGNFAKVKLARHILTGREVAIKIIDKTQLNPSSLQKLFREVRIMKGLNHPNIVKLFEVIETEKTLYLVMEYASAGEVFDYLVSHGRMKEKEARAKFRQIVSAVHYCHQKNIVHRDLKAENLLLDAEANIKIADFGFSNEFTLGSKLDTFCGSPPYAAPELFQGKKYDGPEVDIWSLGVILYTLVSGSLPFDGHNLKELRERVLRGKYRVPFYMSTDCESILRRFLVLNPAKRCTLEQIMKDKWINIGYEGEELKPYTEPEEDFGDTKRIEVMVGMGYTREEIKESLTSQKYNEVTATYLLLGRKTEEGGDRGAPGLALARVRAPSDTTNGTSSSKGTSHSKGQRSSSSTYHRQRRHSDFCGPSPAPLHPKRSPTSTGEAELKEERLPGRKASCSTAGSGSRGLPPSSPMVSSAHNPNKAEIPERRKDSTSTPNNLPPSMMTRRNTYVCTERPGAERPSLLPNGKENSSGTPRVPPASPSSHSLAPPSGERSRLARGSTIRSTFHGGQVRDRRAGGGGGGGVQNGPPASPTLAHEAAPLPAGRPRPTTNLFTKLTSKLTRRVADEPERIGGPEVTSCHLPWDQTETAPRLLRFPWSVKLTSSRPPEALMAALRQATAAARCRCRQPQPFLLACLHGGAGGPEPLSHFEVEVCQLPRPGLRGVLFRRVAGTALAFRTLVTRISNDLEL", "assay": "Kinase profiling", "format": "biochemical", "details": "0.1 or 1 μM inhibitor; mean of triplicate"}, "DYRK3": {"molecular_target": "DYRK3 (Homo sapiens, UniProt O43781)", "assay": "Kinase profiling", "format": "biochemical", "details": "0.1 or 1 μM inhibitor; mean of triplicate", "procedure,_shortened": "as §1"}, "ERK1": {"molecular_target": "ERK1 (Homo sapiens, UniProt P27361)", "assay": "Kinase profiling", "format": "biochemical", "details": "0.1 or 1 μM inhibitor; mean of triplicate", "procedure,_shortened": "as §1"}, "BRK": {"molecular_target": "BRK (Homo sapiens, UniProt Q13882)", "assay": "Kinase profiling", "format": "biochemical", "details": "0.1 or 1 μM inhibitor; mean of triplicate", "procedure,_shortened": "as §1"}, "PIM2": {"molecular_target": "PIM2 (Homo sapiens, UniProt Q9P1W9)", "sequence (Q9P1W9 whole entry)": "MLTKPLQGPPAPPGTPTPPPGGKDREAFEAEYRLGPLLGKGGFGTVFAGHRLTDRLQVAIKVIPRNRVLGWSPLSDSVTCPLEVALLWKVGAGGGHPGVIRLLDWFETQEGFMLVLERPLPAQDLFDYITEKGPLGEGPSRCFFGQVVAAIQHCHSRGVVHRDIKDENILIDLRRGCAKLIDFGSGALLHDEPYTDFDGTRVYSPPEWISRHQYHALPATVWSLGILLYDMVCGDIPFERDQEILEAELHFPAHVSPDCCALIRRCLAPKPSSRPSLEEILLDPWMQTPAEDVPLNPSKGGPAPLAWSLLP", "assay": "Kinase profiling", "format": "biochemical", "details": "0.1 or 1 μM inhibitor; mean of triplicate", "procedure,_shortened": "as §1"}, "YES1": {"molecular_target": "YES1 (Homo sapiens, UniProt P07947)", "assay": "Kinase profiling", "format": "biochemical", "details": "0.1 or 1 μM inhibitor; mean of triplicate", "procedure,_shortened": "as §1"}, "CAMK1": {"molecular_target": "CAMK1 (Homo sapiens, UniProt Q14012)", "assay": "Kinase profiling", "format": "biochemical", "details": "0.1 or 1 μM inhibitor; mean of triplicate", "procedure,_shortened": "as §1"}, "TSSK1": {"molecular_target": "TSSK1 (Homo sapiens, UniProt Q9BXA7)", "assay": "Kinase profiling", "format": "biochemical", "details": "0.1 or 1 μM inhibitor; mean of triplicate"}, "MST2": {"molecular_target": "MST2 (Homo sapiens, UniProt Q13188)", "assay": "Kinase profiling", "format": "biochemical", "details": "0.1 or 1 μM inhibitor; mean of triplicate", "procedure,_shortened": "as §1"}, "PAK6": {"molecular_target": "PAK6 (Homo sapiens, UniProt Q9NQU5)", "sequence (Q9NQU5 whole entry)": "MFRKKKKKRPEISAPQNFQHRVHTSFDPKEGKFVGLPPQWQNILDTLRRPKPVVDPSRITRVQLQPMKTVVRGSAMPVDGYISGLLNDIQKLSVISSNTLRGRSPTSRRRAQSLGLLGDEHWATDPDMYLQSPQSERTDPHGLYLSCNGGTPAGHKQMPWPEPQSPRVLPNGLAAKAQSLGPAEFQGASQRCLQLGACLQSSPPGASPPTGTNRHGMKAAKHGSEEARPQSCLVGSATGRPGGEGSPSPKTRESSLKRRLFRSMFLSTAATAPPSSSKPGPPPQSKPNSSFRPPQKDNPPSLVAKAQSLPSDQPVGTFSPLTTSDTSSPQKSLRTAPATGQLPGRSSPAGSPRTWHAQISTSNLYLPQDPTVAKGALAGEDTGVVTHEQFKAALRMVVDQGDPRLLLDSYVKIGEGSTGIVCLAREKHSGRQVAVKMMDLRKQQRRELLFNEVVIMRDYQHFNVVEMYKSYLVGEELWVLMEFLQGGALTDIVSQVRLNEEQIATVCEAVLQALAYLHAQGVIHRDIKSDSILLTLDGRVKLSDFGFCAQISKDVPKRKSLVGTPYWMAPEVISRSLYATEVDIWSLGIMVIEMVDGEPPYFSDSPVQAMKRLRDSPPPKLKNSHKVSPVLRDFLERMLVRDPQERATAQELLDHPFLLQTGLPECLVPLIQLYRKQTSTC", "assay": "Kinase profiling", "format": "biochemical", "details": "0.1 or 1 μM inhibitor; mean of triplicate", "procedure,_shortened": "as §1"}, "SmMLCK": {"molecular_target": "SmMLCK (Homo sapiens, UniProt Q15746)", "assay": "Kinase profiling", "format": "biochemical", "details": "0.1 or 1 μM inhibitor; mean of triplicate", "procedure,_shortened": "as §1"}, "NUAK1": {"molecular_target": "T1, NUAK1 (Homo sapiens, UniProt O60285)", "T1 construct": "made in house; host or cells: HEK-293 cells, transient transfection of pEBG2T construct", "T1 sequence (O60285 1-661)": "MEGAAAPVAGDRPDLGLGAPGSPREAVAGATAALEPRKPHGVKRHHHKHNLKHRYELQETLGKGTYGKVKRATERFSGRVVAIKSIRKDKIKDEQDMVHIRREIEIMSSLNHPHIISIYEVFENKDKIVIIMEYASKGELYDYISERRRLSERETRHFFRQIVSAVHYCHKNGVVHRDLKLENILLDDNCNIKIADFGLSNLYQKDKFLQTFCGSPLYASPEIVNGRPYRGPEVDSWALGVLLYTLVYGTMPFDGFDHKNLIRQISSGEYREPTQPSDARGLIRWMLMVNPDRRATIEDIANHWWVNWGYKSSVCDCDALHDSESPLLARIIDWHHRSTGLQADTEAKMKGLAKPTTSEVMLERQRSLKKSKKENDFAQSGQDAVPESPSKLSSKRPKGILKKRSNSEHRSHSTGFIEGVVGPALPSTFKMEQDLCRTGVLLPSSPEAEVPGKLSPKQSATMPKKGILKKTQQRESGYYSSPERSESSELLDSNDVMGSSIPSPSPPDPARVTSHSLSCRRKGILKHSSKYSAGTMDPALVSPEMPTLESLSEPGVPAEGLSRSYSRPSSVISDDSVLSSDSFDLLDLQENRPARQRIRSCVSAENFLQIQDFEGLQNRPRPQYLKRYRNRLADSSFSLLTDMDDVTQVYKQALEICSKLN", "assay": "Kinase profiling", "format": "biochemical", "details": "0.1 or 1 μM inhibitor; mean of triplicate"}, "MAPKAP-K2": {"molecular_target": "MAPKAP-K2 (Homo sapiens, UniProt P49137)", "assay": "Kinase profiling", "format": "biochemical", "details": "0.1 or 1 μM inhibitor; mean of triplicate", "procedure,_shortened": "as §1"}, "CDK9-Cyc T1": {"molecular_target": "CDK9-Cyc T1 (Homo sapiens, UniProt P50750)", "assay": "Kinase profiling", "format": "biochemical", "details": "0.1 or 1 μM inhibitor; mean of triplicate"}, "EF2K": {"molecular_target": "EF2K (Homo sapiens, UniProt O00418)", "assay": "Kinase profiling", "format": "biochemical", "details": "0.1 or 1 μM inhibitor; mean of triplicate"}, "JNK3": {"molecular_target": "JNK3 (Homo sapiens, UniProt P53779)", "assay": "Kinase profiling", "format": "biochemical", "details": "0.1 or 1 μM inhibitor; mean of triplicate", "procedure,_shortened": "as §1"}, "SGK1": {"molecular_target": "SGK1 (Homo sapiens, UniProt O00141)", "sequence (O00141 whole entry)": "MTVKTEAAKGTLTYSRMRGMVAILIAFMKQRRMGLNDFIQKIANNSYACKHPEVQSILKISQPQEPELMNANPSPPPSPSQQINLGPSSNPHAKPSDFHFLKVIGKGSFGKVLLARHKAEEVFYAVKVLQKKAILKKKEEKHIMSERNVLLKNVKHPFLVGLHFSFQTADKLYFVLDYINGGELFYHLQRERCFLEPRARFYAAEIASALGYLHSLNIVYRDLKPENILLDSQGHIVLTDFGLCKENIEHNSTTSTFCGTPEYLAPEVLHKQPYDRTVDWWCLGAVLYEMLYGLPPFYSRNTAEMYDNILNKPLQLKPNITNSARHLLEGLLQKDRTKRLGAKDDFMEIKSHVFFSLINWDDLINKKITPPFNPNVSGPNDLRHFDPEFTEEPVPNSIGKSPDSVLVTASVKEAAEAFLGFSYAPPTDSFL", "assay": "Kinase profiling", "format": "biochemical", "details": "0.1 or 1 μM inhibitor; mean of triplicate", "procedure,_shortened": "as §1"}, "EPH-B2": {"molecular_target": "EPH-B2 (Homo sapiens, UniProt P29323)", "sequence (P29323 19-1055)": "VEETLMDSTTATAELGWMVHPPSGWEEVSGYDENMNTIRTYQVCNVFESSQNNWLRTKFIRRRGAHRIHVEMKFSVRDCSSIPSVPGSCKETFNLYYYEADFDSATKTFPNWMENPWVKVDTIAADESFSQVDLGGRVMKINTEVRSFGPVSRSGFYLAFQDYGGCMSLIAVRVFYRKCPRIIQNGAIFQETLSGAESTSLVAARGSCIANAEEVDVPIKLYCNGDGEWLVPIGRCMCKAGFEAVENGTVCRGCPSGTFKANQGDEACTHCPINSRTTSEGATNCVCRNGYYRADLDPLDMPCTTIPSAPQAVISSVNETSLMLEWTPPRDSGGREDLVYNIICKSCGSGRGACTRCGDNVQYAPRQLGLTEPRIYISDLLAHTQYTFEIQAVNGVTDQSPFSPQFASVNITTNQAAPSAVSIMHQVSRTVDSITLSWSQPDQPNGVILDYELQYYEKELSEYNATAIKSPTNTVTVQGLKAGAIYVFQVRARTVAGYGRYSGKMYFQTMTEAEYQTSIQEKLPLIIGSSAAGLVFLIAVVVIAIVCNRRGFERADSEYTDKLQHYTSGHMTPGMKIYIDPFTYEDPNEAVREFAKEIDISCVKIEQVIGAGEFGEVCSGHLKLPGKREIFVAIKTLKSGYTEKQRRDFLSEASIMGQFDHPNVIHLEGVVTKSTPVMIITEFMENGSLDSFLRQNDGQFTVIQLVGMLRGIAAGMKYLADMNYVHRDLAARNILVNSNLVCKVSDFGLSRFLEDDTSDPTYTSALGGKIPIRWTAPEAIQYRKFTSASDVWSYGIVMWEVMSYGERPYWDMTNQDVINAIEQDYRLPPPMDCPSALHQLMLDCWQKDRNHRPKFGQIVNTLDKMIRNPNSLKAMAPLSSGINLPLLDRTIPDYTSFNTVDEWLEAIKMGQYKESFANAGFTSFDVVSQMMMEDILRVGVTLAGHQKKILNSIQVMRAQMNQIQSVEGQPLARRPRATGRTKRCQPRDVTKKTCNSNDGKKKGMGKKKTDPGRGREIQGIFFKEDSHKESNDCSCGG", "assay": "Kinase profiling", "format": "biochemical", "details": "0.1 or 1 μM inhibitor; mean of triplicate", "procedure,_shortened": "as §1"}, "RIPK2": {"molecular_target": "RIPK2 (Homo sapiens, UniProt O43353)", "sequence (O43353 whole entry)": "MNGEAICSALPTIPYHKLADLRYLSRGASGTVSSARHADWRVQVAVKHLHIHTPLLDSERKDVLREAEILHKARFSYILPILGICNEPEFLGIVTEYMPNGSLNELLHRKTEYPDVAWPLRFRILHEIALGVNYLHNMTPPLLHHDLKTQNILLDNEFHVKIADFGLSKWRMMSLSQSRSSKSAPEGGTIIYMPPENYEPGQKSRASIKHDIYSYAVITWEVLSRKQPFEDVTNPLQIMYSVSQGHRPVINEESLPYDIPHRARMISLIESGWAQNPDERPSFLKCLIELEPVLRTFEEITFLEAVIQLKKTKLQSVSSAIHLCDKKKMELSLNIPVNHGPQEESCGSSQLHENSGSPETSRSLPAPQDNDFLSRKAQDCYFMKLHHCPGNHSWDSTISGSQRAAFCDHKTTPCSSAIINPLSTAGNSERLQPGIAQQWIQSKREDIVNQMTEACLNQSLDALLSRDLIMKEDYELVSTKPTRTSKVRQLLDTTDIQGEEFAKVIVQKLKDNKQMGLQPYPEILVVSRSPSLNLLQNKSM", "assay": "Kinase profiling", "format": "biochemical", "details": "0.1 or 1 μM inhibitor; mean of triplicate", "procedure,_shortened": "as §1"}, "NEK2α": {"molecular_target": "NEK2α (Homo sapiens, UniProt P51955)", "sequence (P51955 whole entry)": "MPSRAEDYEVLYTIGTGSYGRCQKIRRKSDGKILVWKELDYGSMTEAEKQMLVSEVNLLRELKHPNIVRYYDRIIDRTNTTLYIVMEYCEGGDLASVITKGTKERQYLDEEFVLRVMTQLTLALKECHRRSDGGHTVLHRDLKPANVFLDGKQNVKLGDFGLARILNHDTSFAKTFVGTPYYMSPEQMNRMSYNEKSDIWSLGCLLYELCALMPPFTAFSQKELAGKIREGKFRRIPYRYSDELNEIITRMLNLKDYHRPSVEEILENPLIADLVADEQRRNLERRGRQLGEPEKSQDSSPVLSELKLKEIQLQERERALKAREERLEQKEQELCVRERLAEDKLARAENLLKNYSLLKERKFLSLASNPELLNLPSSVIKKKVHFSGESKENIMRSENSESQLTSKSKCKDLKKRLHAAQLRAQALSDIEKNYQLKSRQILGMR", "assay": "Kinase profiling", "format": "biochemical", "details": "0.1 or 1 μM inhibitor; mean of triplicate", "procedure,_shortened": "as §1"}, "TTK": {"molecular_target": "TTK (Homo sapiens, UniProt P33981)", "assay": "Kinase profiling", "format": "biochemical", "details": "0.1 or 1 μM inhibitor; mean of triplicate", "procedure,_shortened": "as §1"}, "EPH-A4": {"molecular_target": "EPH-A4 (Homo sapiens, UniProt P54764)", "assay": "Kinase profiling", "format": "biochemical", "details": "0.1 or 1 μM inhibitor; mean of triplicate", "procedure,_shortened": "as §1"}, "SRPK1": {"molecular_target": "SRPK1 (Homo sapiens, UniProt Q96SB4)", "assay": "Kinase profiling", "format": "biochemical", "details": "0.1 or 1 μM inhibitor; mean of triplicate", "procedure,_shortened": "as §1"}, "PINK": {"molecular_target": "PINK (Tribolium castaneum, UniProt D6WMX4)", "assay": "Kinase profiling", "format": "biochemical, insect", "details": "0.1 or 1 μM inhibitor; mean of triplicate", "experimental": "Kinase inhibitor specificity profiling assays were carried out at The International Centre for Protein Kinase Profiling (http://www.kinase-screen.mrc.ac.uk/) against a panel of 140 protein kinases as described previously. Results are presented as a percentage of kinase activity in DMSO control reactions. Protein kinases were assayed in vitro with 0.1 or 1 μM of the inhibitors and the results are presented as an average of triplicate reactions±S.D. or in the form of comparative histograms."}, "U2OS cells": {"system": "U2OS cells", "assay": "3D Matrigel Transwell invasion assay", "format": "cell-based", "details": "10 μM, 16 h, 10% FBS chemoattractant", "experimental": "The ability of U2OS cells to invade in the presence or absence of 10 μM HTH-01-015 or WZ4003 was tested in a growth-factor-reduced Matrigel™ invasion chamber (BD Biosciences, catalogue number 354483) as described previously. Cells were serum-deprived for 2 h, detached using cell-dissociation buffer (Gibco), and 2.5×10^5 cells suspended in DMEM containing 1% (w/v) BSA were added to the upper chambers in triplicate and chemoattractant [DMEM containing 10% (v/v) FBS] was added to the lower wells. The chambers were kept at 37°C in 5% CO2 for 16 h in the presence or absence of 10 μM HTH-01-015 or WZ4003 both in the upper and lower wells. Non-invaded cells were removed from the upper face of the filters by scraping, and cells that had migrated to the lower face of the filters were fixed and stained with Reastain Quick-Diff kit (Reagena) and images (×10 magnification) were captured. For cell invasion assays, statistical significance was assessed using GraphPad Prism 5.0."}}, "data": [{"smiles": "Cc1nc(Nc2cnn(C3CCNCC3)c2)nc2c1N(C)C(=O)c1cc3ccccc3cc1N2C", "note": "[HTH-01-015]", "values": [{"measurement": "PKCγ activity, percentage of DMSO control", "setting": "PKCγ", "value": 107, "unit": "percentage"}, {"measurement": "PRK2 activity, percentage of DMSO control", "setting": "PRK2", "value": 112, "unit": "percentage"}, {"measurement": "MARK4 activity, percentage of DMSO control", "setting": "MARK4", "value": 75, "unit": "percentage"}, {"measurement": "DYRK3 activity, percentage of DMSO control", "setting": "DYRK3", "value": 98, "unit": "percentage"}, {"measurement": "ERK1 activity, percentage of DMSO control", "setting": "ERK1", "value": 83, "unit": "percentage"}, {"measurement": "BRK activity, percentage of DMSO control", "setting": "BRK", "value": 96, "unit": "percentage"}, {"measurement": "PIM2 activity, percentage of DMSO control", "setting": "PIM2", "value": 106, "unit": "percentage"}, {"measurement": "YES1 activity, percentage of DMSO control", "setting": "YES1", "value": 76, "unit": "percentage"}, {"measurement": "CAMK1 activity, percentage of DMSO control", "setting": "CAMK1", "value": 92, "unit": "percentage"}, {"measurement": "TSSK1 activity, percentage of DMSO control", "setting": "TSSK1", "value": 95, "unit": "percentage"}, {"measurement": "MST2 activity, percentage of DMSO control", "setting": "MST2", "value": 118, "unit": "percentage"}, {"measurement": "PAK6 activity, percentage of DMSO control", "setting": "PAK6", "value": 95, "unit": "percentage"}, {"measurement": "SmMLCK activity, percentage of DMSO control", "setting": "SmMLCK", "value": 77, "unit": "percentage"}, {"measurement": "NUAK1 activity, percentage of DMSO control", "setting": "NUAK1", "value": 11, "unit": "percentage"}, {"measurement": "MAPKAP-K2 activity, percentage of DMSO control", "setting": "MAPKAP-K2", "value": 118, "unit": "percentage"}, {"measurement": "CDK9-Cyc T1 activity, percentage of DMSO control", "setting": "CDK9-Cyc T1", "value": 68, "unit": "percentage"}, {"measurement": "EF2K activity, percentage of DMSO control", "setting": "EF2K", "value": 103, "unit": "percentage"}, {"measurement": "JNK3 activity, percentage of DMSO control", "setting": "JNK3", "value": 101, "unit": "percentage"}, {"measurement": "SGK1 activity, percentage of DMSO control", "setting": "SGK1", "value": 97, "unit": "percentage"}, {"measurement": "EPH-B2 activity, percentage of DMSO control", "setting": "EPH-B2", "value": 97, "unit": "percentage"}, {"measurement": "RIPK2 activity, percentage of DMSO control", "setting": "RIPK2", "value": 88, "unit": "percentage"}, {"measurement": "NEK2α activity, percentage of DMSO control", "setting": "NEK2α", "value": 103, "unit": "percentage"}, {"measurement": "TTK activity, percentage of DMSO control", "setting": "TTK", "value": 118, "unit": "percentage"}, {"measurement": "EPH-A4 activity, percentage of DMSO control", "setting": "EPH-A4", "value": 94, "unit": "percentage"}, {"measurement": "SRPK1 activity, percentage of DMSO control", "setting": "SRPK1", "value": 103, "unit": "percentage"}, {"measurement": "PINK activity, percentage of DMSO control", "setting": "PINK", "value": 99, "unit": "percentage"}, {"measurement": "Invasiveness of U2OS cells (in words)", "setting": "U2OS cells", "value": "markedly inhibited the invasiveness"}]}, {"smiles": "CCC(=O)Nc1cccc(Oc2nc(Nc3ccc(N4CCN(C)CC4)cc3OC)ncc2Cl)c1", "note": "[WZ4003]", "values": [{"measurement": "PKCγ activity, percentage of DMSO control", "setting": "PKCγ", "value": 103, "unit": "percentage"}, {"measurement": "PIM2 activity, percentage of DMSO control", "setting": "PIM2", "value": 101, "unit": "percentage"}, {"measurement": "PAK6 activity, percentage of DMSO control", "setting": "PAK6", "value": 104, "unit": "percentage"}, {"measurement": "NUAK1 activity, percentage of DMSO control", "setting": "NUAK1", "value": 6, "unit": "percentage"}, {"measurement": "EPH-B2 activity, percentage of DMSO control", "setting": "EPH-B2", "value": 107, "unit": "percentage"}, {"measurement": "RIPK2 activity, percentage of DMSO control", "setting": "RIPK2", "value": 105, "unit": "percentage"}, {"measurement": "NEK2α activity, percentage of DMSO control", "setting": "NEK2α", "value": 110, "unit": "percentage"}, {"measurement": "Invasiveness of U2OS cells (in words)", "setting": "U2OS cells", "value": "markedly inhibited the invasiveness"}]}]}
